Results as given in patent publication US20100041089A1, “IMPROVED METHOD FOR DETECTING CHEMICAL […]” (priority 2006, published 2010).

System: yeast genes (expressed mRNA)
Experiment: DNA chip measurement of expressed mRNA of yeast genes after culture with a toxic chemical substance
Format: cell-based, Saccharomyces cerevisiae S288C
Conditions: for level of expressed mRNA in the presence of chemical substance / level in the absence of chemical substance: cultured two hours with the chemical substance; for The level of expressed mRNA in the presence of chemical substance/The level of expressed mRNA in the absence of chemical substance: cultured two hours with substance
Summary of the method: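 Each expression value is the mRNA level in chemical-treated yeast divided by that in untreated yeast, from Cy3/Cy5 fluorescence on a whole-genome chip. Log-phase S288C cells in YPD at 25° C had received a sublethal, growth-inhibiting dose for two hours. Intensity denotes control expression relative to the all-gene mean.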

CCCCCCCCCCCCc1ccc(S(=O)(=O)[O-])cc1.[Na+] [(17), Sodium dodecylbenzosulfonate]
level of expressed mRNA in the presence of chemical substance / level in the absence of chemical substance (yeast gene YJL097W): 1.2
The level of expressed mRNA in the presence of chemical substance/The level of expressed mRNA in the absence of chemical substance (yeast gene YJL151C): 3.5
The level of expressed mRNA in the presence of chemical substance/The level of expressed mRNA in the absence of chemical substance (yeast gene YJL152W): 2.5
The level of expressed mRNA in the presence of chemical substance/The level of expressed mRNA in the absence of chemical substance (yeast gene YJL161W): 1.9
The level of expressed mRNA in the presence of chemical substance/The level of expressed mRNA in the absence of chemical substance (yeast gene YJL171C): 3.6
The level of expressed mRNA in the presence of chemical substance/The level of expressed mRNA in the absence of chemical substance (yeast gene YJR008W): 1.5
level of expressed mRNA in the presence of chemical substance / level in the absence of chemical substance (yeast gene YJR030C): 0.7
The level of expressed mRNA in the presence of chemical substance/The level of expressed mRNA in the absence of chemical substance (yeast gene YJR054W): 0.9
level of expressed mRNA in the presence of chemical substance / level in the absence of chemical substance (yeast gene YKL051W): 1.5
The level of expressed mRNA in the presence of chemical substance/The level of expressed mRNA in the absence of chemical substance (yeast gene YKL071W): 1.0
The level of expressed mRNA in the presence of chemical substance/The level of expressed mRNA in the absence of chemical substance (yeast gene YKL086W): 0.9
level of expressed mRNA in the presence of chemical substance / level in the absence of chemical substance (yeast gene YKL097C): 1.1
level of expressed mRNA in the presence of chemical substance / level in the absence of chemical substance (yeast gene YKL100C): 0.7
The level of expressed mRNA in the presence of chemical substance/The level of expressed mRNA in the absence of chemical substance (yeast gene YKL151C): 1.4
The level of expressed mRNA in the presence of chemical substance/The level of expressed mRNA in the absence of chemical substance (yeast gene YKL153W): 0.9
The level of expressed mRNA in the presence of chemical substance/The level of expressed mRNA in the absence of chemical substance (yeast gene YKL195W): 1.4
level of expressed mRNA in the presence of chemical substance / level in the absence of chemical substance (yeast gene YKR040C): 0.7
The level of expressed mRNA in the presence of chemical substance/The level of expressed mRNA in the absence of chemical substance (yeast gene YKR091W): 1.6
The level of expressed mRNA in the presence of chemical substance/The level of expressed mRNA in the absence of chemical substance (yeast gene YLR054C): 1.6
The level of expressed mRNA in the presence of chemical substance/The level of expressed mRNA in the absence of chemical substance (yeast gene YLR149C): 1.3
The level of expressed mRNA in the presence of chemical substance/The level of expressed mRNA in the absence of chemical substance (yeast gene YLR152C): 1.5
The level of expressed mRNA in the presence of chemical substance/The level of expressed mRNA in the absence of chemical substance (yeast gene YLR194C): 1.0
level of expressed mRNA in the presence of chemical substance / level in the absence of chemical substance (yeast gene YLR226W): 1.1
The level of expressed mRNA in the presence of chemical substance/The level of expressed mRNA in the absence of chemical substance (yeast gene YLR324W): 1.2
level of expressed mRNA in the presence of chemical substance / level in the absence of chemical substance (yeast gene YLR338W): 0.8
The level of expressed mRNA in the presence of chemical substance/The level of expressed mRNA in the absence of chemical substance (yeast gene YLR350W): 1.6
The level of expressed mRNA in the presence of chemical substance/The level of expressed mRNA in the absence of chemical substance (yeast gene YLR387C): 1.0
level of expressed mRNA in the presence of chemical substance / level in the absence of chemical substance (yeast gene YLR392C): 0.8
level of expressed mRNA in the presence of chemical substance / level in the absence of chemical substance (yeast gene YLR415C): 0.8
level of expressed mRNA in the presence of chemical substance / level in the absence of chemical substance (yeast gene YLR427W): 1.0
The level of expressed mRNA in the presence of chemical substance/The level of expressed mRNA in the absence of chemical substance (yeast gene YLR460C): 1.0
level of expressed mRNA in the presence of chemical substance / level in the absence of chemical substance (yeast gene YML013W): 1.1
level of expressed mRNA in the presence of chemical substance / level in the absence of chemical substance (yeast gene YML029W): 1.2
level of expressed mRNA in the presence of chemical substance / level in the absence of chemical substance (yeast gene YML041C): 1.3
level of expressed mRNA in the presence of chemical substance / level in the absence of chemical substance (yeast gene YML079W): 1.4
The level of expressed mRNA in the presence of chemical substance/The level of expressed mRNA in the absence of chemical substance (yeast gene YML117W): 1.1
The level of expressed mRNA in the presence of chemical substance/The level of expressed mRNA in the absence of chemical substance (yeast gene YMR009W): 2.7
The level of expressed mRNA in the presence of chemical substance/The level of expressed mRNA in the absence of chemical substance (yeast gene YMR067C): 1.0
level of expressed mRNA in the presence of chemical substance / level in the absence of chemical substance (yeast gene YMR068W): 1.3
level of expressed mRNA in the presence of chemical substance / level in the absence of chemical substance (yeast gene YMR071C): 1.2
The level of expressed mRNA in the presence of chemical substance/The level of expressed mRNA in the absence of chemical substance (yeast gene YMR090W): 1.8
The level of expressed mRNA in the presence of chemical substance/The level of expressed mRNA in the absence of chemical substance (yeast gene YMR095C): 1.0
The level of expressed mRNA in the presence of chemical substance/The level of expressed mRNA in the absence of chemical substance (yeast gene YMR097C): 1.4
The level of expressed mRNA in the presence of chemical substance/The level of expressed mRNA in the absence of chemical substance (yeast gene YMR102C): 2.4
The level of expressed mRNA in the presence of chemical substance/The level of expressed mRNA in the absence of chemical substance (yeast gene YMR107W): 1.3
level of expressed mRNA in the presence of chemical substance / level in the absence of chemical substance (yeast gene YMR160W): 0.9
The level of expressed mRNA in the presence of chemical substance/The level of expressed mRNA in the absence of chemical substance (yeast gene YMR180C): 1.4
The level of expressed mRNA in the presence of chemical substance/The level of expressed mRNA in the absence of chemical substance (yeast gene YMR184W): 1.4
The level of expressed mRNA in the presence of chemical substance/The level of expressed mRNA in the absence of chemical substance (yeast gene YMR191W): 1.2
The level of expressed mRNA in the presence of chemical substance/The level of expressed mRNA in the absence of chemical substance (yeast gene YMR295C): 2.1
The level of expressed mRNA in the presence of chemical substance/The level of expressed mRNA in the absence of chemical substance (yeast gene YMR316W): 6.9
level of expressed mRNA in the presence of chemical substance / level in the absence of chemical substance (yeast gene YNL026W): 1.0
The level of expressed mRNA in the presence of chemical substance/The level of expressed mRNA in the absence of chemical substance (yeast gene YNL044W): 3.1
